# According to patent publication US20260102359A1, “COMBINATION TREATMENT OF DERMAL AND TRANSDERMAL FIBROTIC DISEASES, DISORDERS AND ASSOCIATED PAIN AND INFLAMMATION” (ERESINA, LLC, priority 2022, published 2026):
# Counter-ions that a name gives are not always drawn.
# Test system: hDMFa myofibroblast cells
row,SMILES,Compound Myofibroblast Cytotoxicity Activity
1,"CCCCCCCC/C=C\CCCCCCCC(=O)O [Cmpd 733, Oleic Acid]",+++
2,"C=CC(=O)Nc1cccc(Oc2nc(Nc3ccc(N4CCN(C)CC4)cc3)nc3ccsc23)c1 [Cmpd 735, Olmutinib (HM61713, BI1482694)]",++++
3,"COc1ccc2[n-]c([S+]([O-])Cc3ncc(C)c(OC)c3C)nc2c1.[Na+] (centres unmarked) [Cmpd 737, Omeprazole Sodium]",++
4,"CCCCCCCCOc1ccccc1C(=O)Nc1ccc(C(=O)OCC[N+](C)(CC)CC)cc1 [Cmpd 741, Otilonium Bromide]",+++++
5,"Cc1ccccc1C(=O)O [Cmpd 742, o-Toluic acid]",++
6,"CN(C(=O)CN(CCO)CC(=O)N(C)C(C)(C)Cc1ccccc1)C(C)(C)Cc1ccccc1 [Cmpd 745, Oxethazaine]",+++++
7,"CCN(CC)CC#CCOC(=O)C(O)(c1ccccc1)C1CCCCC1 (centres unmarked) [Cmpd 747, Oxybutynin]",++
8,"C1=N/C2=N/c3ccc(OCCN4CCCC4)c(c3)COC/C=C/COCc3cccc(c3)C(=C1)N2 [Cmpd 751, Pacritinib (SB1518)]",+++
9,"CC(=O)c1c(C)c2cnc(Nc3ccc(N4CCNCC4)cn3)nc2n(C2CCCC2)c1=O.O=S(=O)(O)CCO [Cmpd 753, Palbociclib (PD0332991) Isethionate]",+++++
10,CCCCCCCCCCCCCCCC(=O)OC [Cmpd 754],+++
11,"NCCC(O)(P(=O)([O-])O)P(=O)([O-])O.[Na+].[Na+] [Cmpd 756, Pamidronate Disodium]",+++
12,"C#CCN(C)Cc1ccccc1 [Cmpd 757, Pargyline (hydrochloride)]",++
13,"Fc1ccc([C@@H]2CCNC[C@H]2COc2ccc3c(c2)OCO3)cc1 [Cmpd 758, Paroxetine HCl]",+++
14,"CS(=O)(=O)O.C[C@H]1COc2c(C3(N)CC3)c(F)cc3c(=O)c(C(=O)O)cn1c23 [Cmpd 760, Pazufloxacin mesylate]",+++
15,"Cc1ccc(O)cc1 [Cmpd 762, p-Cresol]",++
16,"CC(=O)c1c(C)c2cnc(Nc3ccc(N4CCNCC4)cn3)nc2n(C2CCCC2)c1=O.Cl [Cmpd 763, PD 0332991 (Palbociclib) HCl]",++++
17,"OC1(c2ccc(Cl)c(C(F)(F)F)c2)CCN(CCCC(c2ccc(F)cc2)c2ccc(F)cc2)CC1 [Cmpd 765, Penfluridol]",+++
18,"CC(C)(S)[C@@H](N)C(=O)O [Cmpd 766, Penicillamine]",++
19,"N=C(N)c1ccc(OCCCCCOc2ccc(C(=N)N)cc2)cc1.O=S(=O)(O)CCO.O=S(=O)(O)CCO [Cmpd 768, Pentamidine isethionate]",+++
20,"CC(=O)CCCCn1c(=O)c2c(ncn2C)n(C)c1=O [Cmpd 769, Pentoxifylline]",++++
21,"C1CCc2nnnn2CC1 [Cmpd 770, Pentylenetetrazole]",++++

row,SMILES,Compound Myofibroblast Cytotoxicity Activity
1,"OCCN1CCN(CCCN2c3ccccc3Sc3ccc(Cl)cc32)CC1 [Cmpd 773, Perphenazine]",+++++
2,"COS(=O)(=O)[O-].C[n+]1c2ccccc2nc2ccccc21 [Cmpd 775, Phenazine methosulfate]",+++++
3,"CC(COc1ccccc1)N(CCCl)Cc1ccccc1.Cl (centres unmarked) [Cmpd 776, Phenoxybenzamine HCl]",++
4,"O=C1NC(=O)C(c2ccccc2)(c2ccccc2)N1 [Cmpd 778, Phenytoin sodium]",++
5,"O=C(O)c1ccccc1C(=O)O [Cmpd 781, Phthalic acid]",++
6,"O=C(O)CCCNC(=O)c1cccnc1 [Cmpd 783, Pikamilone]",++
7,"CCc1ccc(CCOc2ccc(CC3SC(=O)NC3=O)cc2)nc1 (centres unmarked) [Cmpd 785, Pioglitazone HCl]",+++
8,"O=C([O-])C[C@H](O)C[C@H](O)/C=C/c1c(C2CC2)nc2ccccc2c1-c1ccc(F)cc1.O=C([O-])C[C@H](O)C[C@H](O)/C=C/c1c(C2CC2)nc2ccccc2c1-c1ccc(F)cc1.[Ca+2] [Cmpd 786, Pitavastatin Calcium]",+++
9,"Nc1cccc2c1C(=O)N(C1CCC(=O)NC1=O)C2=O (centres unmarked) [Cmpd 789, Pomalidomide (CC-4047)]",++
10,"C[n+]1ccccc1/C=N/O [Cmpd 792, Pralidoxime Iodide]",++
11,"CC(=O)Oc1cc2c(s1)CCN(C(C(=O)C1CC1)c1ccccc1F)C2.Cl (centres unmarked) [Cmpd 794, Prasugrel hydrochloride]",++
12,"COc1cc(NC(C)CCCN)c2ncccc2c1.O=P(O)(O)O.O=P(O)(O)O (centres unmarked) [Cmpd 796, Primaquine Diphosphate]",+++
13,"CN1CCN(CCCN2c3ccccc3Sc3ccc(Cl)cc32)CC1 [Cmpd 797, Prochlorperazine]",+++++
14,"CC(=O)[C@H]1CC[C@H]2[C@@H]3CCC4=CC(=O)CC[C@]4(C)[C@H]3CC[C@]12C [Cmpd 799, Progesterone]",+++
15,"CCCOc1ccc2c(c1)CC[C@@H]1[C@@H]2CC[C@]2(C)[C@@H](OC)CC[C@@H]12 [Cmpd 800, Promestriene]",++
16,"CC(CN1c2ccccc2Sc2ccccc21)N(C)C (centres unmarked) [Cmpd 801, Promethazine HCl]",++
17,"O=C(O)c1ccc(O)c(O)c1 [Cmpd 804, Protocatechuic acid]",++
18,"CC(O)Cn1cnc2c1c(=O)n(C)c(=O)n2C (centres unmarked) [Cmpd 805, Proxyphylline]",++
19,"COCCCN1CCC(NC(=O)c2cc(Cl)c(N)c3c2OCC3)CC1 [Cmpd 806, Prucalopride]",+++
20,"Cc1ncc(CO)c(CO)c1O [Cmpd 809, Pyridoxine]",++
21,"Oc1ccccc1O [Cmpd 810, Pyrocatechol]",++

row,SMILES,Compound Myofibroblast Cytotoxicity Activity
1,"N.S=C(S)N1CCCC1 [Cmpd 811, Pyrrolidinedithiocarbamate ammonium]",++
2,"CC(C)(C)c1cc(NC(=O)Nc2ccc(-c3cn4c(n3)sc3cc(OCCN5CCOCC5)ccc34)cc2)no1 [Cmpd 815, Quizartinib (AC220)]",++++
3,"COc1cc(Nc2ncc(F)c(Nc3ccc4c(n3)N(COP(=O)([O-])[O-])C(=O)C(C)(C)O4)n2)cc(OC)c1OC.[Na+].[Na+] [Cmpd 816, R788 disodium]",++
4,"CC(=O)SCC(Cc1ccccc1)C(=O)NCC(=O)OCc1ccccc1 (centres unmarked) [Cmpd 817, Racecadotril]",++
5,"Cc1cn(-c2cc(NC(=O)c3ccc(C)c(Nc4nccc(-c5cnccn5)n4)c3)cc(C(F)(F)F)c2)cn1 [Cmpd 818, Radotinib(IY-5511)]",++++
6,"O=C(c1ccc(OCCN2CCCCC2)cc1)c1c(-c2ccc(O)cc2)sc2cc(O)ccc12 [Cmpd 819, Raloxifene HCl]",++++
7,"CO[C@H]1C[C@@H]2CC[C@@H](C)[C@@](O)(O2)C(=O)C(=O)N2CCCC[C@H]2C(=O)O[C@H]([C@H](C)C[C@@H]2CC[C@@H](O)[C@H](OC)C2)CC(=O)[C@H](C)/C=C(\C)[C@@H](O)[C@@H](OC)C(=O)[C@H](C)C[C@H](C)/C=C/C=C/C=C/1C [Cmpd 820, Rapamycin (Sirolimus)]",++++
8,"C#CCN[C@@H]1CCc2ccccc21 [Cmpd 821, Rasagiline]",++
9,"CCOc1cc(CC(=O)N[C@@H](CC(C)C)c2ccccc2N2CCCCC2)ccc1C(=O)O [Cmpd 826, Repaglinide]",+++
10,"O=c1ccc2[n+]([O-])c3ccc(O)cc3oc-2c1 [Cmpd 827, Resazurin sodium salt]",++
11,"Oc1ccc(C=Cc2cc(O)cc(O)c2)cc1 [Cmpd 829, Resveratrol]",++
12,"CCCCCCCCCCCCCCCC(=O)OC/C=C(C)/C=C/C=C(C)/C=C/C1=C(C)CCCC1(C)C [Cmpd 830, Retinyl (Vitamin A) Palmitate]",++
13,"CO[C@H]1/C=C/O[C@@]2(C)Oc3c(C)c(O)c4c(O)c(cc(O)c4c3C2=O)NC(=O)/C(C)=C\C=C\[C@H](C)[C@H](O)[C@@H](C)[C@@H](O)[C@@H](C)[C@H](OC(C)=O)[C@@H]1C [Cmpd 833, Rifamycin sodium salt]",++
14,"CO[C@H]1/C=C/O[C@@]2(C)Oc3c(C)c(O)c4c(O)c(c(/C=N/N5CCN(C6CCCC6)CC5)c(O)c4c3C2=O)NC(=O)/C(C)=C\C=C\[C@H](C)[C@H](O)[C@@H](C)[C@@H](O)[C@@H](C)[C@H](OC(C)=O)[C@@H]1C [Cmpd 834, Rifapentine]",+++
15,"N=C(N/N=C/c1ccc(Cl)cc1)N/N=C/c1ccc(Cl)cc1 [Cmpd 838, Robenidine hydrochloride]",++
16,"C/C=C1\NC(=O)[C@H]2CSSCC/C=C/[C@H](CC(=O)N[C@H](C(C)C)C(=O)N2)OC(=O)[C@H](C(C)C)NC1=O [Cmpd 839, Romidepsin (FK228,depsipeptide)]",++
17,"CCCN1CCCC[C@H]1C(=O)Nc1c(C)cccc1C.CS(=O)(=O)O [Cmpd 840, Ropivacaine Mesilate]",++
18,"CN(C(=O)c1c(O)c2ccccc2n(C)c1=O)c1ccccc1 [Cmpd 841, Roquinimex]",++
19,"CC(C)c1nc(N(C)S(C)(=O)=O)nc(-c2ccc(F)cc2)c1/C=C/[C@@H](O)C[C@@H](O)CC(=O)[O-].CC(C)c1nc(N(C)S(C)(=O)=O)nc(-c2ccc(F)cc2)c1/C=C/[C@@H](O)C[C@@H](O)CC(=O)[O-].[Ca+2] [Cmpd 842, Rosuvastatin Calcium]",+++
20,"NC(=O)c1cn(Cc2c(F)cccc2F)nn1 [Cmpd 843, Rufinamide]",+++
